In patent US20160304611A1, “COMBINATION THERAPY FOR TREATING ADULT PATIENTS WITH RELAPSED/REFRACTORY CD22+ B-CELL ACUTE LYMPHOBLASTIC LEUKEMIA” (Immunomedics, Inc., priority 2015, published 2016):
“And” between values parts separate entries of the source, which are not always exact repeats. Identical values can stand only once.

What was measured:
[1] = in subjects; cited from earlier work
[2] = system: relapsed/refractory CD22+B-ALL; assay: Prospective Phase 2 study of epratuzumab added to vincristine and dexamethasone (salvage chemoimmunotherapy); type: in vivo, human
Protocol: Here, we have evaluated the addition of epratuzumab (hLL2, 360 mg/m^2/d iv on days 1, 8, 15, and 22) to the combination of vincristine (2 mg iv, days 1, 8, 15 and 22) and dexamethasone (40 mg/d po, days 1, 8, 15, and 22) in patients >55 years old, with relapsed/refractory CD22+B-ALL. Dexamethasone was administered before epratuzumab administration+paracetamol 1 g as prophylaxis in order to prevent epratuzumab infusion reactions. Also, intrathecal injections of methotrexate 15 mg, aracytine 40 mg, and depomedrol 40 mg were recommended on days 1 and 8.
This prospective Phase 2 study was conducted at 6 French centers and was approved by the Brest ethical committee and the clinical trial department of the “Agence Française de Sécurité Sanitaire des Produits de Santé” (AFSSAPS). This trial is registered as NCT01219816. Epratuzumab was supplied by Immunomedics, Inc. (Morris Plains, N.J., USA). Written informed consent was obtained from each patient.
The main objective of the study was the CR rate defined by patients reaching CR+CR without platelets recovery (CRi). CR was defined as <5% marrow blasts, neutrophils >1×10^9/L, platelets >100×10^9/L and no evidence of extramedullary disease. CRi was defined similarly but without recovery of platelets counts. Partial response (PR) was defined as a decrease of >50% of blasts in the bone marrow.
(§1) Responses were evaluated between 4 and 6 weeks post-salvage regimen. Patients in response (CR, CRi or PR) were allowed to receive a second cycle as consolidation. Toxicity was evaluated according to the NCI-CTC criteria version 4. Cytologic, phenotypic, karyotype and BCR-ABL1 (for Ph+B-ALL) molecular analyses were performed on blood samples and/or BM aspirates by standard methods.
Over a three year period, 26 patients were enrolled. One case was excluded because of progression before receiving the treatment, while 2 younger patients were inappropriately included (person in fourth relapse and a person with refractory second relapse). All the 25 treated patients were considered for analysis.

[3] = system: Leukemic blasts; assay: Minimal residual disease (MRD) evaluated by flow cytometry on bone marrow samples; type: in vivo, human
Protocol: FIG. 1A. Minimal residual disease (MRD) evaluated by flow cytometry. All patients were monitored for CD22 expression before treatment and then for phenotypic MRD. Leukemic blasts were evaluated using a 8 colors panel including antibodies to CD45, CD19, CD10, CD34, CD38, CD58, CD20 and CD22. MRD was assessed, concomitantly to responses, between 4 and 6 weeks after beginning the salvage regimen using flow cytometry (FACS CANTO II, BD, Biosciences, San Jose, Calif.) performed on bone marrow samples. Two different anti-CD22 antibodies were used. The RFB4 antibody (PE conjugated, Invitrogen, Camarillo, Calif.) and epratuzumab bind competitively to CD22, meaning that in the presence of epratuzumab, RFB4 binding is blocked. By contrast, the SHCL-1 antibody (PE or PerCp-Cy5.5 conjugated, BD Biosciences, San Jose, Calif.) binds to a non-crossblocking epitope and can be used to assess the modulation of the CD22 antigen on the blasts surface. […] Case 1: An example of positive MRD. Leukemic blasts were both CD22-RFB4 and CD22-SHCL-1 positive before treatment. After treatment, the percentage of blasts is estimated at 0.05%.
FIG. 1B. Minimal residual disease (MRD) evaluated by flow cytometry. All patients were monitored for CD22 expression before treatment and then for phenotypic MRD. Leukemic blasts were evaluated using a 8 colors panel including antibodies to CD45, CD19, CD10, CD34, CD38, CD58, CD20 and CD22. MRD was assessed, concomitantly to responses, between 4 and 6 weeks after beginning the salvage regimen using flow cytometry (FACS CANTO II, BD, Biosciences, San Jose, Calif.) performed on bone marrow samples. Two different anti-CD22 antibodies were used. The RFB4 antibody (PE conjugated, Invitrogen, Camarillo, Calif.) and epratuzumab bind competitively to CD22, meaning that in the presence of epratuzumab, RFB4 binding is blocked. By contrast, the SHCL-1 antibody (PE or PerCp-Cy5.5 conjugated, BD Biosciences, San Jose, Calif.) binds to a non-crossblocking epitope and can be used to assess the modulation of the CD22 antigen on the blasts surface. […] Case 2: An example of “negative” MRD. Leukemic blasts (CD10/CD20 negative) are both CD22-RFB4 and CD22-SHCL-1 positive before treatment. After treatment, MRD was <10^−5.

[4] = Toxicity evaluated according to the NCI-CTC criteria version 4; type: in vivo, human
Protocol: as §1

[5] = system: CD22; assay: CD22 expression on blasts after treatment, flow cytometry with RFB4 and SHCL-1 anti-CD22 antibodies; type: cell-based, human; details: non-responders and three patients with detectable MRD
Protocol: (§2) FIG. 1A. Minimal residual disease (MRD) evaluated by flow cytometry. All patients were monitored for CD22 expression before treatment and then for phenotypic MRD. Leukemic blasts were evaluated using a 8 colors panel including antibodies to CD45, CD19, CD10, CD34, CD38, CD58, CD20 and CD22. MRD was assessed, concomitantly to responses, between 4 and 6 weeks after beginning the salvage regimen using flow cytometry (FACS CANTO II, BD, Biosciences, San Jose, Calif.) performed on bone marrow samples. Two different anti-CD22 antibodies were used. The RFB4 antibody (PE conjugated, Invitrogen, Camarillo, Calif.) and epratuzumab bind competitively to CD22, meaning that in the presence of epratuzumab, RFB4 binding is blocked. […]
as §2, with “1B.” for “1A.”, “samples.” for “samples. Two different anti-CD22 antibodies were used. The RFB4 antibody (PE conjugated, Invitrogen, Camarillo, Calif.) and epratuzumab bind competitively to CD22, meaning that in the presence of epratuzumab, RFB4 binding is blocked.”

[6] = combination with vincristine and dexamethasone, 25 treated patients
[7] = combination with vincristine and dexamethasone, of 25 treated patients
[8] = combination with vincristine and dexamethasone, six Ph+B-ALL patients
[9] = combination with vincristine and dexamethasone, unclear etiology

veltuzumab: humanized IgG1 antibody against CD20
immunogenicity compared with rituximab [1]: less immunogenic

epratuzumab: anti-CD22 humanized antibody (Immunomedics, Inc.); given here with vincristine and dexamethasone
CR+CRi rate [2, 6]: 20%
PR rate [2, 6]: 20%
patients who died during treatment due to progression of the disease [2, 6]: Two
number of patients with CR [2, 7]: 4
number of patients with CRi [2, 7]: 1
number of patients with PR [2, 7]: 5
median leukemia-free survival ([2]; combination with vincristine and dexamethasone, patients achieving CR/CRi, range 1-8): 3.8 months
number of patients with CR among Ph+B-ALL patients [2, 8]: 2
number of patients with PR among Ph+B-ALL patients [2, 8]: 1
1-year OS ([2]; combination with vincristine and dexamethasone, whole cohort N=25, estimated): 13+7%
median overall survival (OS) ([2]; combination with vincristine and dexamethasone, whole cohort N=25, range 0.5-43): 4 months
overall response rate ([2]; epratuzumab 360 mg/m2/d iv + vincristine 2 mg iv + dexamethasone 40 mg/d po, days 1, 8, 15, 22, 25 treated patients, evaluated 4-6 weeks post-salvage): 40%
percentage of blasts after treatment ([3]; FIG. 1A, Case 1, example of positive MRD): 0.05%
MRD after treatment ([3]; FIG. 1B, Case 2, example of negative MRD): < 10^−5
number of CR/CRi patients with undetectable MRD ([3]; combination with vincristine and dexamethasone, 5 CR/CRi patients): 2
MRD evaluated by cytometry, individual responder patient ([3]; combination with vincristine and dexamethasone, CR/CRi patient with detectable MRD): 1.2%
MRD evaluated by cytometry, individual responder patients ([3]; combination with vincristine and dexamethasone, CR/CRi patients with detectable MRD): 5×10^−4 and 7×10^−3
tolerability of salvage regimen ([4]; combination with vincristine and dexamethasone, large majority of grade 3/4 toxicities were expected pancytopenia): generally tolerated well
grade-3 renal toxicity, number of cases [4, 9]: One
grade-4 hypertriglyceridemia, number of cases [4, 9]: one
grade-3 allergic toxicity, number of cases ([4]; related to the first epratuzumab infusion): One
targeting of CD22 on residual blasts (RFB4 negative, SHCL-1 positive) [5]: persistent targeting of epratuzumab on blasts without loss of the CD22/epratuzumab complex from the cell surface
